The test system of experiment [1] is 59 human cancer cell lines. Kind of experiment: SRB growth inhibition, 59-NCI Cancer Cell Line Panel. Format: cell-based. Particulars: 48 hours, range over 59 cell lines. The source says: Human cancer cell lines from the 59-NCI Cancer Cell Line Panel including leukemia, melanoma and cancers of breast, brain, colon, lung, ovary, prostate and kidney, were purchased from the National Institute of Cancer (USA). The growth inhibition (GI50) of these cell lines treated with cucurbitacin B and cucurbitacin D in various concentrations was investigated.
59 human cancer cell lines were maintained in RPMI 1640 (Invitrogen Life Technologies, CA, USA) supplemented with 5% Fetal Bovine Serum, 2 mM L-glutamine and 1% Penicillin/Streptomycin (Invitrogen Life Technologies) at 37° C. with 5% CO2. All chemicals were purchased from Sigma (St. Louis, Mo., USA) unless specified otherwise.
Sulforhodamine B (SRB) assay was applied to determine the cytostatic effect of cucurbitacin B and cucurbitacin D. SRB is a dye that binds to cellular proteins and will be dissolved in base. The biomass of total protein can be measured at 520 nm using a plate reader.
Cells were inoculated into 96-well microtiter plates including “Time zero” (Tz) plates in 100 μl at cell concentrations from 5000 to 40,000 cells per well according to NCI guideline. The cells were incubated at 37° C. with 5% CO2 for 24 hours. […] Bound SRB was solubilized with 100-200 ul per well of 10 mM trizma base and absorbance was measured at a wavelength of 520 nm. The percentage of growth inhibition was calculated as follows: […]

Experiment [2] has as its system Human cancer cell lines from the 59-NCI Cancer Cell Line Panel. Kind of experiment: Apoptosis (Annexin V-FITC / PI) by flow cytometry, 18 selected NCI panel cell lines. Format: cell-based. As to conditions: 48 hours; GI50, ½ GI50 and ¼ GI50. Here is the method: Apoptosis is the important mechanism for cell death in normal cells. In cancer cells, this mechanism fails and cells proliferate without control. Human cancer cell lines from the 59-NCI Cancer Cell Line Panel including leukemia, melanoma and cancers of breast, brain, colon, lung, ovary, prostate and kidney were purchased from the National Institute of Cancer. […] They were treated with cucurbitacin B and cucurbitacin D at three different concentrations to elucidate their ability to induce any changes in cell cycle.
Cancer cell lines were maintained in RPMI 1640 supplemented with 5% Fetal Bovine Serum, 2 mM L-glutamine and 1% Penicillin/Streptomycin at 37° C. with 5% CO2. Cells were inoculated into tissue culture flask at cell concentrations from 50000 to 400,000 cells/ml according to the NCI guideline. The cells were incubated at 37° C. with 5% CO2 for 24 hours. Cucurbitacin B and cucurbitacin D were added to the cells of final concentrations ranging from 6 to 350 nM (GI50, ½ GI50 and ¼ GI50 of particular cell line) for 48 hours at 37° C. with 5% CO2. Cells (3×10^5) were then harvested and stained with 5 μl Annexin V-FITC and 10 μl propidium iodine (Becton Dickinson, CA, USA) for 15 minutes at room temperature. Ten thousands events were collected by the FACScaliber and the percentage of different cell populations were analyzed by the CellQuest™ software (Becton Dickinson).

The test system of experiment [3] is Stat3. Briefly: Western blot of Stat3 activation in HepG2, HT29 and MCF-7 cells. Format: cell-based, human.
The subject of experiment [4] is MAPK signaling pathway. Briefly: Western blot of MAPK / cell cycle signaling proteins in HL60 cells. Format: cell-based, human. Here is the method:
Control cells, as well as cells treated with cucurbitacin B or cucurbitacin D, were harvested and collected by centrifugation. Whole cell extracts were then prepared by lysing the cells using 4% sodium dodecyl sulfate (SDS) gel sample buffer. Cell extracts were boiled for 10 min and chilled on ice, subjected to 12% SDS-polyacrylamide gel electrophoresis, and transferred to a PVDF membrane. Each membrane was cut into to two pieces with one piece incubated at 4° C. overnight with antibodies against cell cycle signaling proteins, such as ERK, phosphorlated-ERK, p38, phosphorlated-p38, Cyclin E, Retinoblastoma, phosphalated-Retinoblastoma and c-myc, and apoptotic protein (PARP). β-actin was used as a control for protein loading. All antibodies were obtained from Cell signaling Technologies (USA). Then membranes were incubated at 37° C. for 1 h with secondary antibody conjugated with peroxidase, and the signal was detected using chemiluminescence detection reagent. The relative protein level was calculated as the ratio of the optical density of the protein of interest to that of β-actin.
For orientation: In western blotting, separated proteins are transferred to a membrane and probed.

The subject of experiment [5] is Panc 02.13. Kind of experiment: MTT cell cytotoxicity assay, Panc 02.13. As to conditions: Homo sapiens, 48 hours. Format: cell-based. Here is the method:
Three human pancreatic cancer cell lines (Panc-1, Panc 02.13, Panc 10.05) were purchased from American Type Culture Collection (ATCC, Manassas, Va., USA). Panc 02.13 and Panc 10.05 were grown in RPMI 1640 medium supplemented with 15% FBS, 4.5 g/L glucose, 10 mM HEPES, and 1.0 mM sodium pyruvate and 10 Units/ml human insulin; while PANC-1 was grown in Dulbecco's modified Eagle's medium supplemented with 10% FBS. They were maintained in a humidified 5% CO2 atmosphere at 37° C. and the culture medium was changed once in 2 days.
The cytotoxic effect of CuB on these three cancer cell lines were determined using MTT (3-[4,5-dimethylthiazol-2-yl]-2,5-diphenyl tetrazolium bromide) labeled cell cytotoxicity assay. A total of 1×10^4 cells were seeded into a 96-well plate for 24 hours prior to cucurbitacin B (CuB) treatment. They were then treated with different dosages of CuB for 48 hours. After the treatment, 20 μl of MTT (5 mg/ml) was added to each well and incubated for 4 hrs. Then the medium was discarded and 100 μl of dimethyl sulfoxide was added. The absorbance at 570 nm was then measured by FLUOstar OPTIMA equipment (BMG, LABTECH GmbH, Germany). The percentage of inhibition against different dosages of CuB were plotted using the Prism software and the 50% inhibition concentration (IC50) were obtained. […]

Structures are written as SMILES.

1 molecule from US20090247495A1, “CU[…] AND USES THEREOF” (priority 2007, published 2009) can be followed below.

What is called GI50 is the concentration giving 50% growth inhibition. Lower therefore signals greater sensitivity of the cells. With `CC(=O)OC(C)(C)/C=C/C(=O)[C@](C)(O)C1[C@H](O)C[C@@]2(C)C3CC=C4C(C[C@H](O)C(=O)C4(C)C)[C@]3(C)C(=O)C[C@]12C` (stereo partly drawn) [cucurbitacin B], the GI50 in experiment [1] was 5.8 to 164 nM; in experiment [5], 5.13 µM. Also, the “cell lines in which apoptosis was induced” value in experiment [2] is reported as 9 out of 18. Also, the Stat3 activation entry is given as “inhibited significantly” in experiment [3] (HepG2 cells and HT29 cells, 25 ug/ml, 30 minutes); “no significant change” in experiment [3] (MCF-7 cells). In addition, the “regulation of ERK, cyclin E, retinoblastoma phosphorylation and c-myc” value in experiment [4] was “ERK activation, followed by cyclin E down-regulation, inhibition of retinoblastoma's phosphorylation, and ultimately down-regulation of c-myc”.
